Molecules are shown by their SMILES. In brackets after ≈: the same amount, converted by molar mass. Activity calls are given as the source filed them. The calls are words filed in the database; no cut-off is given here.

The subject of one data set is Liver. In words: Metabolic stability in mouse liver microsomes at 5 uM up to 1 hr by LC/MS/MS analysis. The data set is classed as ADME, Microsome.
Conditions: not given
Background: Liver microsomes are vesicles of endoplasmic reticulum, rich in cytochrome P450 enzymes.
Regarding `O=C(CCCCc1nnc(NC(=O)Cc2ccccc2)s1)NCCN1CCCC1`, the Stability entry is reported as “Stable”.

Consider `Nc1nnc(CCCCc2nnc(NC(=O)Cc3ccccc3)s2)s1`, for which the Stability entry is listed as “Stable”.

The next data set deals with P493. Kind of data set: Antitumor activity against human P493 cells xenografted in SCID mouse assessed as reduction in tumor growth at 12.5 mg/kg, ip administered every other day from day 10 measured on days 10 to 19 relative to vehicle-treated control. Also noted: dose 12.5 mg/kg.
Conditions: not given
The data set is classed as functional, organism-based. For orientation: In xenograft studies the graft and the host belong to different species.
Regarding `Nc1nnc(CCSCCc2nnc(NC(=O)Cc3ccccc3)s2)s1`, the TGI entry was “Active”.

Tested on in the next data set: not listed separately
Kind of data set: (§1) Cytotoxicity against human P493 cells assessed as growth inhibition by trypan blue dye exclusion assay. Type of data set: functional, cell-based. Conditions: P493-6.
Regarding `O=C(CCCCc1nnc(NC(=O)Cc2ccccc2)s1)NCCN1CCCC1`, the IC50 (commonly the concentration at which inhibition is half-maximal) turned out to be 40 µM.

A further data set has as its system P493. Described as §1. The data set is classed as functional, cell-based.
Conditions: not given
Consider `Nc1nnc(CCSCCc2nnc(NC(=O)Cc3ccccc3)s2)s1`, for which the “growth inhibition (GI)” value is “Dose-dependent effect”.

Another data set concerns the target T1, Glutaminase liver isoform, mitochondrial (Mus musculus) (UniProt Q571F8).
T1 sequence (whole entry): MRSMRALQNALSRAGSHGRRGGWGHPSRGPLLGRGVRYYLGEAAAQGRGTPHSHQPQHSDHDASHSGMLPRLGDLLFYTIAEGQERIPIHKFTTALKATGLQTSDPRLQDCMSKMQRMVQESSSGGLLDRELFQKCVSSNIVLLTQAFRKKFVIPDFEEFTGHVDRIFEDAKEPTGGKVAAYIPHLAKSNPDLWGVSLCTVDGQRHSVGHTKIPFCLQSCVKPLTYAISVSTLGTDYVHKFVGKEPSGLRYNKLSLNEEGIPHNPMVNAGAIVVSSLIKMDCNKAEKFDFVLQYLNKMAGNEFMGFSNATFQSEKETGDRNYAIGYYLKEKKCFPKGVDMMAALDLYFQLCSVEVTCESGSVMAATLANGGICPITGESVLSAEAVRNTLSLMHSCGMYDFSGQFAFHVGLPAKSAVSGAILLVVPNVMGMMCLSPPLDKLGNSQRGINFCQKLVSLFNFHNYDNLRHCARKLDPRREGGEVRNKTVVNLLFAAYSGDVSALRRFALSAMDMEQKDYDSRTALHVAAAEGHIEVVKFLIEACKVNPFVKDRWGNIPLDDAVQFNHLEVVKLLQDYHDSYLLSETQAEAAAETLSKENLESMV
Kind of data set: Inhibition of mouse liver GLS2 up to 100 uM.
Conditions: not given
On to `Nc1nnc(CCSCCc2nnc(NC(=O)Cc3ccccc3)s2)s1`, for which the inhibition result is “inactive”.

For the next data set, the target named is T2, Glutaminase kidney isoform, mitochondrial (Homo sapiens, UniProt O94925).
T2 sequence (O94925 whole entry): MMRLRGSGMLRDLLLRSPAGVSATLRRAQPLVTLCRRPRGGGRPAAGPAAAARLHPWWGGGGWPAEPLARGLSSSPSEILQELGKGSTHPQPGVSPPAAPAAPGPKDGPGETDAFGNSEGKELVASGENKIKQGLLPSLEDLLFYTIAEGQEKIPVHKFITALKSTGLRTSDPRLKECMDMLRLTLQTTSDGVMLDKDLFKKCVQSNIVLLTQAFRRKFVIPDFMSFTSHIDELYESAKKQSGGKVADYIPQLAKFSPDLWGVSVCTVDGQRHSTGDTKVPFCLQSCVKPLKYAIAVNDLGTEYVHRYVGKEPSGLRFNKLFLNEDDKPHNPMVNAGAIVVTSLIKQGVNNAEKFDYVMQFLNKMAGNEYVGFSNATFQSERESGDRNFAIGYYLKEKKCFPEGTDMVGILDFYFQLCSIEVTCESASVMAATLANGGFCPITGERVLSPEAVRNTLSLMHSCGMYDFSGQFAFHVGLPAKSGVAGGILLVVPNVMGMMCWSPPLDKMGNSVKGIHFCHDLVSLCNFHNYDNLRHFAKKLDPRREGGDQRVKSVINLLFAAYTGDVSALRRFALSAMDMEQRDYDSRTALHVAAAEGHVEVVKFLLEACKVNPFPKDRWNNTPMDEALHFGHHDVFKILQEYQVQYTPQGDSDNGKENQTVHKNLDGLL
Kind of data set: Inhibition of human kidney glutaminase (124 to 669) using L-[3H]-glutamine as substrate after 45 mins by GLS assay.
Conditions: not given
`Nc1nnc(CCCCc2nnc(NC(=O)Cc3ccc(F)cc3)s2)s1` yielded an IC50 of 2.6 µM. `Nc1nnc(CCCc2nnc(NC(=O)Cc3ccccc3)s2)s1` registered an IC50 of 15 µM. The same measure, in the same setting: in the case of `Nc1nnc(CCCCc2nnc(NC(=O)c3ccccc3)s2)s1` it was 7.2 µM. `Cc1ccc(CC(=O)Nc2nnc(CCCCc3nnc(N)s3)s2)cc1`: the IC50 is 4.5 µM.

On to `O=C(CCCCc1nnc(NC(=O)Cc2ccccc2)s1)NCCN1CCC(O)CC1`, for which the IC50 was determined as 3.8 µM. Still for that read-out and setting: in the case of `O=C(CCCCc1nnc(NC(=O)Cc2ccccc2)s1)NCCN1CCCCC1` it was 10 µM; in that of `O=C(CCCCc1nnc(NC(=O)Cc2ccccc2)s1)NCc1ccccc1`, over 100 µM; in that of `CC(C(=O)Nc1nnc(CCCCc2nnc(N)s2)s1)c1ccccc1` (stereo not given), 12 µM. On the same count and under the same terms, next, `Nc1nnc(CC[S+]([O-])CCc2nnc(NC(=O)Cc3ccccc3)s2)s1` (stereo not given): 61 µM; `CN1CCCC1CCNC(=O)CCCCc1nnc(NC(=O)Cc2ccccc2)s1` (stereo not given): 8.1 µM; `CN(C(=O)CCCCc1nnc(NC(=O)Cc2ccccc2)s1)C(C)(C)C`: 5.2 µM. On to `CCN(CC)CCNC(=O)CCCCc1nnc(NC(=O)Cc2ccccc2)s1`, for which the IC50 was determined as 26 µM.

For the molecule `Nc1nnc(CCCCc2nnc(NC(=O)CCc3ccccc3)s2)s1`, the IC50 was over 100 µM. As for `CN(C)c1ccc(CNC(=O)CCCCc2nnc(NC(=O)Cc3ccccc3)s2)cc1`, the half-inhibitory concentration (IC50) came to 48 µM. `CN(CCN1CCCC1)C(=O)CCCCc1nnc(NC(=O)Cc2ccccc2)s1` gave a concentration for half-maximal inhibition (IC50) of over 100 µM. Same read-out and setting: next, `CC(C)(C)NC(=O)CCCCc1nnc(NC(=O)Cc2ccccc2)s1`: 11 µM; `O=C(CCCCc1nnc(NC(=O)Cc2ccccc2)s1)NCCN1CCC(c2ccccc2)CC1`: 1.4 µM; `O=C(CCCCc1nnc(NC(=O)Cc2ccccc2)s1)NCc1ccc(C(F)(F)F)cc1`: over 100 µM. In the case of `Nc1nnc(CCCCc2csc(NC(=O)Cc3ccccc3)n2)s1`, the IC50 was over 100 µM. Regarding `NCCNC(=O)CCCCc1nnc(NC(=O)Cc2ccccc2)s1`, the IC50 was over 100 µM. On the same count and under the same terms, next, `Nc1nnc(CCCCc2cnc(NC(=O)Cc3ccccc3)s2)s1`: over 100 µM; `Nc1nnc(CCCCc2nnc(NC(=O)CC3CCCCC3)s2)s1`: 22 µM.

Tested on in a further data set: not listed separately
Kind of data set: physchem. As to conditions: PBS buffer, pH 7.4.
Description: Aqueous solubility of the compound in PBS buffer at pH 7.4 after 72 hrs by conventional shake flask method
For the molecule `O=C(CCCCc1nnc(NC(=O)Cc2ccccc2)s1)NCCN1CCCC1`, the thermodynamic solubility (in general, solubility found after equilibrating the solid with the medium) at 72 h amounted to 683 µg/mL (≈ 1640 µM).

In turn, `Nc1nnc(CCCCc2nnc(NC(=O)Cc3ccccc3)s2)s1` came in with a solubility (thermodynamic) at 72 h of 3.4 µg/mL (≈ 9.08 µM). This solubility thermodynamic at 72 h lies about 200-fold lower than the previous one.

These data come from ChEMBL document CHEMBL2177047, “Design, synthesis, and pharmacological evaluation of bis-2-(5-phenylacetamido-1,2,4-thiadiazol-2-yl)ethyl sulfide 3 (BPTES) analogs as glutaminase inhibitors” (J Med Chem, 2012).
